In paper PMC13401508 (Pharmacological research, 2026):

Columns and labels:
PDGF-AA = PDGF-AA mRNA expression by qRT-PCR in PC cells; format: cell-based, human; settings: 24 hrs
Method: Total RNA was extracted from cells using miRNeasy kits (Qiagen), and cDNA was prepared as described previously. Gene specific TaqMan Probes were obtained from Applied Bio system, Thermo-Fisher, USA. qRT-PCR was performed using an ABI Quant Studio real-time PCR.
Fig. 2. […] NF-κB activity was measured by absorbance at 450 nm (n = 3 ± SD; * p < 0.05). […] C) PDGF-AA protein levels were determined in the three PC cell line-derived conditioned media by ELISA. In both panels: n = 3 ± SD; * p < 0.05.

CYP2E1 = target: T1, CYP2E1 (Homo sapiens, UniProt P05181); experiment: Drug-substrate based CYP inhibition, 2E1; format: in vitro ADME; settings: human liver microsomes
T1 construct: in the presence of human liver microsomes; from tissue; host or cells: human liver microsomes
Method: (§1) IVMT-Rx-4 was incubated with selective probe substrates of each CYP isoform in the presence of human liver microsomes. The formation of metabolite was quantified using LC-MS/MS methods. The extent of inhibition was assessed by calculating the remaining enzyme activity and percent inhibition based on analyte-to-internal standard area ratios, using the following equations:
(§2) Area Ratio = Peak AreaAnalyte / Peak AreaInternal Standard
(§3) Remaining Activity (%) = Area Ratiotest compound / Area Ratiovehicle ×100
(§4) Inhibition (%) = 100 ̶ Remaining Activity (%)

MST = experiment: Western blot, PDGF-AA activated HS5 cells: MST; format: cell-based, human; settings: PDGF-AA 10 ng/ML, 25 μM, 24 hrs
[1] = Particle size distribution (PSD); format: physicochemical; settings: wet method, water
Method: About 15 mg of sample was pre-dispersed using 1 mL of water. After mixing completely, PSD was analyzed with the parameters in Table below.

PDGFRα = experiment: Western blot, PDGF-AA activated HS5 cells: PDGFRα; format: cell-based, human; settings: PDGF-AA 10 ng/ML, 25 μM, 24 hrs
[2] = tested on: CYP1A2, 2A6, 2B6, 2C8, 2C9, 2C19, 2D6 (the other isoforms of the panel); experiment: Drug-substrate based CYP inhibition, other isoforms of the panel; format: in vitro ADME; settings: human liver microsomes; isoforms of the panel not given; read-out: Drug-substrate based CYP Inhibition, others
Method: as §1, §2, §3, §4

T1 sequence (P05181 whole entry): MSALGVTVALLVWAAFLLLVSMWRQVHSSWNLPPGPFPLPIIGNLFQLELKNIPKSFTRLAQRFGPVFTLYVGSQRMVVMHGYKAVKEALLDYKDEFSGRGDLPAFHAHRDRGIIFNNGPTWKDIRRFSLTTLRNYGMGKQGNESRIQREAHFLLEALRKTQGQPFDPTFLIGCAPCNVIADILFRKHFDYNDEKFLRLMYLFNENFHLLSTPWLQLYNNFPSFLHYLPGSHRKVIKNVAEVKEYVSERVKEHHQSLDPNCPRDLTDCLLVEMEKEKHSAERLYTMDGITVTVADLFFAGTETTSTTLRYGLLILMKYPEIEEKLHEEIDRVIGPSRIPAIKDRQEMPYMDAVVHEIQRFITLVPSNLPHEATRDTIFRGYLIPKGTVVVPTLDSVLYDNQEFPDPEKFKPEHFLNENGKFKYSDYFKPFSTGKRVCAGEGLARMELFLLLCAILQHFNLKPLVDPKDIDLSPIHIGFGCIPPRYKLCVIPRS

SMILES: Cc1cc(NC(=O)CCc2nnc(-c3ccccc3)o2)c(C)cc1N [IVMT-Rx-4]
- PDGF-AA levels in mda-9 knockout clones (PDGF-AA; PC3-ML mda-9 KO and ARCaP-M mda-9 KO): did not further reduce PDGF-AA levels
- PDGF-AA mRNA level (PDGF-AA; PC3-ML, ARCaP-M and C4–2B cells, 25 μM or 50 μM): decreased PDGF-AA
- IC50 (CYP2E1): ~8 µM
- phosphorylation of MST (MST): promoted the phosphorylation of MST
- Dv [90], average value [1]: 58.6 μm
- PDGFRα activation (phosphorylated PDGFRα) (PDGFRα): downregulation of phosphorylated PDGFRα
- IC50 [2]: > 10 µM
